Assays:
[1] = molecular target: T1, VEGFR-2 (Homo sapiens, UniProt P35968); assay: VEGFR-2 enzymatic inhibition assay (Z'-LYTE-Tyr1 Peptide FRET kit); assay type: biochemical; settings: enzymatic FRET-based assay, 10 μM ATP; four separate determinations
T1 construct: purchased Invitrogen
Description: The compounds were assessed for VEGFR-2 inhibition activity using the Z′-LYTE-Tyr1 Peptide assay kit (according to the procedures recommended by the manufacturer Invitrogen, Cat. PV3190) [14]. Briefly, assays were performed in a total of 20 μL in 384-well plates using fluorescence resonance energy transfer technology. A Tyr1 substrate (coumarin-fluorescein double-labeled peptide) at 1.0 μM was incubated for 1 h with 4 μg/mL VEGFR-2, 10 μM ATP, and inhibitors at room temperature in 50 mM Hepes/Na (pH 7.5), 10 mM MgCl2, 2.0 mM MnCl2, 2.5 mM DTT, 0.10 mM orthovanadate, and 0.01% bovine serum albumin. […] After a second incubation of 1 hour, a stop reagent was added to each well.

[2] = system: HUVECs; assay: MTS toxicity (cell viability) assay in HUVECs; assay type: cell-based, human; settings: 24 h, control 2.33 ± 0.06 O.D., mean ± SEM
Description: (§1) Human umbilical vein endothelial cells (HUVECs) were obtained from the ScienceCell Research Labs (San Diego, CA, USA), HUVECs were seeded on plates coated with 0.2% gelatin (Sigma-Aldrich, Sintra, Portugal) and cultured in M199 medium (Sigma-Aldrich, Sintra, Portugal) supplemented with 20% fetal bovine serum (FBS) (Invitrogen Life Technologies, Scotland, UK), 1% penicillin/streptomycin (Invitrogen Life Technologies), 0.01% heparin (Sigma-Aldrich), and […] endothelial cell growth supplement (Biomedical Technologies Inc., MA, USA) and maintained at 37°C in a humidified 5% carbon dioxide atmosphere. Cells were kept between passages 3 and 8 for every experiment. The test compounds were dissolved in DMSO and added to cell cultures at a concentration of 0.1–10 μM. Incubations were performed for 24 h in medium supplemented with 2% FBS, 1% penicillin/streptomycin, and 60 ng/mL of the vascular endothelial growth factor (Sigma-Aldrich, Sintra, Portugal). Control cells were incubated with vehicle (DMSO at 0.1% in every culture).
HUVECs (2 × 10^5 cells/mL) were allowed to grow for 24 h and then incubated with the test compounds at a range concentration between 0.1 and 10 μM or control (0.1% DMSO) for 24 h. After the incubation period, cells were washed and their viability was assessed using Cell Titer 96 Aqueous ONE Solution Reagent MTS [3-(4,5-dimethylthiazol-2-yl)-5-(3-carboxymethoxyphenyl)-2-(4-sulfophenyl)-2H-tetrazolium] colorimetric assay (Promega, Madison, USA), according to the instructions provided by the manufacturer and as previously described. Optical density was measured at 492 nm. Three independent experiments were performed, and the results were expressed as mean ± SEM.

[3] = system: HUVECs; assay: TUNEL cell apoptosis assay in HUVECs; assay type: cell-based, human; settings: 24 h; for Effect on apoptosis (TUNEL): 0.1, 0.5 and 1 μM, statistical significance only for 2a at the highest concentration
Description: as §1
HUVECs (6 × 10^4 cells/mL) were grown for 24 h on glass coverslips and incubated with different concentrations (0.1–1 μM) of the tested compounds. TUNEL assay was performed using the In Situ Cell Death Detection kit (Roche Diagnostics, Mannheim, Germany), according to the manufacturer's instruction and as previously reported. Immunofluorescence was visualized under a fluorescence microscope (Olympus, BH-2, UK). The percentage of stained cells was evaluated by counting the cells stained with TUNEL (apoptotic cells) divided by the total number of nuclei counterstained with DAPI (Invitrogen, CA, USA) at a 200x magnification field. One thousand nuclei were evaluated. Results were expressed as percentage of control (100%).

[4] = system: phosphorylated (activated) VEGFR-2; assay: Western blotting of phosphorylated (active) and total VEGFR-2 in HUVECs; assay type: cell-based, human; settings: 1 μM, normalized with total VEGFR-2
Description: as §1
Proteins were isolated from HUVEC lysates using RIPA (Chemicon International, CA, USA). Proteins were quantified using a spectrophotometer (Jenway, 6405 UV/vis, Essex, UK), and 20 μg of protein were subjected to 8% SDS-PAGE with a 5% stacking gel. After electrophoresis, proteins were blotted into a Hybond nitrocellulose membrane (Amersham, Arlington, VA, USA). Immunodetection for total VEGFR-2 (1 : 1000; Cell Signaling, MA, USA), phosphorylated (activated) VEGFR-2 (1 : 750; Santa Cruz Biotechnology, CA, USA), and β-actin (1 : 3000; Abcam, Cambridge, UK) was accomplished with enhanced chemiluminescence (ECL kit, Amersham, Arlington, USA). […] The relative intensity of each protein blotting analysis was measured using a computerized software program (Bio-Rad, CA, USA), and the expression of activated and total VEGFR-2 were normalized with total VEGFR-2 and β-actin bands, respectively, to compare the expression of proteins in different treatment groups.

T1 sequence (P35968 834-1162 limits assumed): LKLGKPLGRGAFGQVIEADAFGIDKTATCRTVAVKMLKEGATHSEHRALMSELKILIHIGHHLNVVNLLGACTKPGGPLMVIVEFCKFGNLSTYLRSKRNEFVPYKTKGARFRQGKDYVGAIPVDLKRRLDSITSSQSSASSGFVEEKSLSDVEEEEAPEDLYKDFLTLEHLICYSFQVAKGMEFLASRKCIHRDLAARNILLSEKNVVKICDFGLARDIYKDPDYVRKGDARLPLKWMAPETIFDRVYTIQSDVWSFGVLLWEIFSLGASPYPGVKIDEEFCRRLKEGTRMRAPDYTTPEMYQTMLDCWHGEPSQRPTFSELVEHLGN

| Compound | IC50 [1] [nM] | Viability of HUVEC (MTS optical density) ([2]; 5.0 μM) [O.D.] | Viability of HUVEC (MTS optical density) ([2]; 10 μM) [O.D.] | Effect on apoptosis (TUNEL) [3] | Formation of the active (phosphorylated) form of VEGFR-2 [4] | melting point [°C] | Increase in apoptosis (TUNEL) comparing with untreated cells ([3]; highest concentration tested (1 μM)) [%] |
| --- | --- | --- | --- | --- | --- | --- | --- |
| COc1ccc(NC(=O)Nc2ccc(Oc3ncnc4ccsc34)cc2)cc1 [Compound 2b, 1-(4-Methoxyphenyl)-3-[4-(thieno[3,2-d]pyrimidin-4-yloxy)phenyl]urea] | 188 | 1.84 ± 0.05 | 1.82 ± 0.04 | increase in apoptosis | significantly decrease | – | – |
| COc1ccc(NC(=O)Nc2ccc(Oc3ncnc4c(C)csc34)cc2)cc1 [Compound 2e, 1-(4-Methoxyphenyl)-3-[4-(7-methylthieno[3,2-d]pyrimidin-4-yloxy)phenyl]urea] | > 100000 | – | – | – | – | 248.4 to 249.6 | – |
| N#Cc1ccc(NC(=O)Nc2ccc(Oc3ncnc4ccsc34)cc2)cc1 [Compound 2c, 1-(4-Cyanophenyl)-3-[4-(thieno[3,2-d]pyrimidin-4-yloxy)phenyl]urea] | 150 | – | 1.96 ± 0.02 | increase in apoptosis | did not significantly inhibit | – | – |
| Cc1csc2c(Oc3ccc(NC(=O)Nc4ccc(C#N)cc4)cc3)ncnc12 [Compound 2f, 1-(4-Cyanophenyl)-3-[4-(7-methylthieno[3,2-d]pyrimidin-4-yloxy)phenyl]urea] | > 100000 | – | – | – | – | – | – |
| O=C(Nc1ccccc1)Nc1ccc(Oc2ncnc3ccsc23)cc1 [Compound 2a, 1-Phenyl-3-[4-(thieno[3,2-d]pyrimidin-4-yloxy)phenyl]urea] | 199 | 2.00 ± 0.06 | 1.99 ± 0.03 | increase in apoptosis | significantly decrease | – | 32.8 ± 1.23 |
| Cc1csc2c(Oc3ccc(NC(=O)Nc4ccccc4)cc3)ncnc12 [Compound 2d, 1-Phenyl-3-[4-(7-Methylthieno[3,2-d]pyrimidin-4-yloxy)phenyl]urea] | > 100000 | – | – | – | – | 285.7 to 287.3 | – |
